This is an account of results in US11485742B2, “2-azaspiro[3.4]octane derivatives as M4 agonists” (NOVARTIS AG, priority 2019, dated 2022).

Format in all cases: cell-based
Test [1] deals with T1, human cloned CHRM3 receptor (Homo sapiens, UniProt P20309).
T1 construct: expressed in transfected cells; host or cells: CHO-K1 (M3_CHO)
Kind of test: CHRM3 Ca++ Flux Assay (M3_CHO cells, agonist mode). To be noted: for Emax / M3 FDSS PA %: Percent Activity (PA) measured to EC100 of Carbachol; for Emax: read-out: M3 FDSS PA %; for EC50: agonist mode, geometric mean if tested more than once, read-out: M3 FDSS EC50. Summed up:
(§1)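 CHO-K1 cells stably expressing human M3 or M5 receptor, dye-loaded ≥1 h, treated with 11-point compound doses in triplicate; Ca++ flux read over 3 min (FDSS). Agonist-mode four-parameter fit; percent activity relative to carbachol EC100; repeat tests reported as geometric mean.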

The target of test [2] is T2, Cloned human M1 receptor (CHRM1) (Homo sapiens, UniProt P11229).
T2 construct: expressed in transfected cells; host or cells: HEK293
T2 sequence (P11229 1-460): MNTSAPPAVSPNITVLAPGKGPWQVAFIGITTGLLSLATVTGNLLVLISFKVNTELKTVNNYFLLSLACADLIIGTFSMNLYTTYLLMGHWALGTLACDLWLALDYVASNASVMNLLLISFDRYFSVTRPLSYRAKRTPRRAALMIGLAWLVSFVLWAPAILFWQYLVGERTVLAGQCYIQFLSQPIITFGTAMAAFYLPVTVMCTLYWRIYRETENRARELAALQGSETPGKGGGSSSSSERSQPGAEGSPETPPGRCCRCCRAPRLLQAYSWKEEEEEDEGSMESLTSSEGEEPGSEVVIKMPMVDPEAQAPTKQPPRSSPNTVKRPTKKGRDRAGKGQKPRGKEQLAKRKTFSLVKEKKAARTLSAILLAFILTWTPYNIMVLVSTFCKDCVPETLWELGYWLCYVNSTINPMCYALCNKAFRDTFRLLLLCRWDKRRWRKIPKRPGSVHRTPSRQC
The test is described as follows: CHRM1 Ca++ Flux Assay (HEK293 M1 cells, agonist mode). To be noted: for Emax / M1 FDSS PA %: Percent Activity (PA); for Emax: read-out: M1 FDSS PA %; for EC50: geometric mean if tested more than once, read-out: M1 FDSS EC50. Summed up:
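HEK293 cells stably expressing human M1 were loaded with Ca++ dye, then given compounds (11-point dose, triplicate) in HBSS −Ca/−Mg, 20 mM HEPES. Ca++ flux was read over 3 min (agonist mode). Four-parameter curves were fitted, with activity as percent of carbachol EC100.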

Test [3] has as its target T3, human cloned CHRM5 receptor (Homo sapiens, UniProt P08912).
T3 construct: expressed in transfected cells; host or cells: CHO (M5_CHO)
T3 sequence (P08912 1-532): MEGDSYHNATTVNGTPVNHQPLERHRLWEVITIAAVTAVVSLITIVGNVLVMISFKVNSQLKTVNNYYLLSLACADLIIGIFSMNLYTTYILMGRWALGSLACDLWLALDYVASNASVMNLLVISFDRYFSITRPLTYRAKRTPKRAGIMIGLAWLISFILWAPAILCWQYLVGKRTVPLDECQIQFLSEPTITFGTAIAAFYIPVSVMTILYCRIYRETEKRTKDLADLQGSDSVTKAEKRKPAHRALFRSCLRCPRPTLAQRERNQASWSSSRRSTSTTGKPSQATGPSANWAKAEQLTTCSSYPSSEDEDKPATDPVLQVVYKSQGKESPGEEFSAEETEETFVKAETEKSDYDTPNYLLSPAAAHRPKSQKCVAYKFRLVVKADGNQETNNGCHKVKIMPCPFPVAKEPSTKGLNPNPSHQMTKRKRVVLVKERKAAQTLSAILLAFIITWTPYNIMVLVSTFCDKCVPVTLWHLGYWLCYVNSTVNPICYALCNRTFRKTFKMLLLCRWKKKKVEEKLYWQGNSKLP
The test is described as follows: CHRM5 Ca++ Flux Assay (M5_CHO cells, agonist mode). To be noted: for Emax / M5 FDSS PA %: Percent Activity (PA) measured to EC100 of Carbachol; for Emax: read-out: M5 FDSS PA %; for EC50: agonist mode, geometric mean if tested more than once, read-out: M5 FDSS EC50. An outline of the steps: as §1

Counter-ions that a name gives are not always drawn.

T1 sequence (P20309 whole entry): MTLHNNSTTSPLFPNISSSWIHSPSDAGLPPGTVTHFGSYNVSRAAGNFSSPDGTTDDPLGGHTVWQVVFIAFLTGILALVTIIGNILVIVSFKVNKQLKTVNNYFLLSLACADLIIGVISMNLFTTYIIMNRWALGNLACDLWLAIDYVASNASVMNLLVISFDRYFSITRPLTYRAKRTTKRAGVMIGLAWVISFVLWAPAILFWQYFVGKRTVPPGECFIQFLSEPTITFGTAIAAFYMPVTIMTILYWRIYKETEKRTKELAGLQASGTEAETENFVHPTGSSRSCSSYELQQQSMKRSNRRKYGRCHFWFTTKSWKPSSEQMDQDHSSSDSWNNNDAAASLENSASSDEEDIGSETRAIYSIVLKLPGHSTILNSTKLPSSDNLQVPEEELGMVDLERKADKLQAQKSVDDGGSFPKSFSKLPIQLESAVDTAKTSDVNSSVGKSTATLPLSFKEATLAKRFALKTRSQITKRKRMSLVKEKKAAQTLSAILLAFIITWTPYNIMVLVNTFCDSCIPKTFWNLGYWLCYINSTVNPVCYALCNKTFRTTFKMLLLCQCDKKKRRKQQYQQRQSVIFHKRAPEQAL

By EC50 is commonly meant the concentration that produces a half-maximal response. Take `COc1cc(F)ccc1C1CCN([C@@H]2COC3(C2)CN(c2nncs2)C3)CC1` [Example 5T, (S)-7-(4-(4-fluoro-2-methoxyphenyl)piperidin-1-yl)-2-(1,3,4-thiadiazol-2-yl)-5-oxa-2-azaspiro[3.4]octane]: the results for the Emax in test [1], in test [2] and in test [3] were 0%, 57% and 0%, respectively. For the same compound, the EC50 in test [1] is more than 25 µM; in test [2], 1.79 µM; in test [3], more than 25 µM.

On to `Fc1ccc(C2CCN([C@@H]3COC4(C3)CN(c3ncco3)C4)CC2)c(OC2COC2)c1` [Example 4S, (S)-7-(4-(4-fluoro-2-(oxetan-3-yloxy)phenyl)piperidin-1-yl)-2-(oxazol-2-yl)-5-oxa-2-azaspiro[3.4]octane], for which the Emax turned out to be 0% in test [1], 89% in test [2] and 0% in test [3]. For the same compound, the half-maximal effective concentration (EC50) was more than 25 µM in test [1], 0.624 µM in test [2] and more than 25 µM in test [3].

For the compound `c1ccc(C2CCN([C@@H]3COC4(C3)CN(c3ncco3)C4)CC2)c(C2CCOCC2)c1` [Example 4V, (S)-2-(oxazol-2-yl)-7-(4-(2-(tetrahydro-2H-pyran-4-yl)phenyl)piperidin-1-yl)-5-oxa-2-azaspiro[3.4]octane], the figures for the Emax in test [1], in test [2] and in test [3] were 0%, 72% and 0%, respectively. Further, the results for the EC50 in test [1], in test [2] and in test [3] were more than 25 µM, 1.99 µM and more than 25 µM, respectively.

As to `Fc1ccc(OCC2C3COCC32)c(C2CCN([C@@H]3COC4(C3)CN(c3nnco3)C4)CC2)c1` (stereo partly drawn) [Example 2Z, (7S)-7-(4-(2-((3-oxabicyclo[3.1.0]hexan-6-yl)methoxy)-5-fluorophenyl)piperidin-1-yl)-2-(1,3,4-oxadiazol-2-yl)-5-oxa-2-azaspiro[3.4]octane], the Emax in test [1] is 0%; in test [2], 11%; in test [3], 0%. The EC50 in test [1] was more than 25 µM; in test [2], 5.06 µM; in test [3], more than 25 µM.

Turning to `COCCOc1ccc(F)cc1C1CCN([C@@H]2COC3(C2)CN(c2ncns2)C3)CC1` [Example 5D, (S)-7-(4-(5-fluoro-2-(2-methoxyethoxy)phenyl)piperidin-1-yl)-2-(1,2,4-thiadiazol-5-yl)-5-oxa-2-azaspiro[3.4]octane], the Emax in test [1] was 0%; in test [2] it was 60%; in test [3], 0%. Besides, the EC50 is more than 25 µM in test [1], 1.15 µM in test [2] and more than 25 µM in test [3].

On to `c1ccc(C2CCN([C@@H]3COC4(C3)CN(c3ncco3)C4)CC2)c(O[C@@H]2CCOC2)c1` [Example 4F, (S)-2-(oxazol-2-yl)-7-(4-(2-(((R)-tetrahydrofuran-3-yl)oxy)phenyl)piperidin-1-yl)-5-oxa-2-azaspiro[3.4]octane], for which the Emax in test [1] came out at 0%; in test [2], 90%; in test [3] it was 0%. The EC50 is more than 25 µM in test [1], 0.54 µM in test [2] and more than 25 µM in test [3].

As to `Fc1ccc(O[C@H]2CCCOC2)c(C2CCN([C@@H]3COC4(C3)CN(c3nnco3)C4)CC2)c1` (single isomer, unassigned) [Example 2Q, (S)-7-(4-(5-fluoro-2-(((S)-tetrahydro-2H-pyran-3-yl)oxy)phenyl)piperidin-1-yl)-2-(1,3,4-oxadiazol-2-yl)-5-oxa-2-azaspiro[3.4]octane or (S)-7-(4-(5-fluoro-2-(((R)-tetrahydro-2H-pyran-3-yl)oxy)phenyl)piperidin-1-yl)-2-(1,3,4-oxadiazol-2-yl)-5-oxa-2-azaspiro[3.4]octane], in test [1], the “M3 FDSS PA %” value was 0% and the EC50 is more than 25 µM. Also, in test [2], the “M1 FDSS PA %” value turned out to be 80% and the EC50 was determined as 2.02 µM. Moreover, in test [3], the “M5 FDSS PA %” value turned out to be 0% and the EC50 is more than 25 µM.

Consider `Fc1cc(OC2CCOCC2)c(C2CCN([C@@H]3COC4(C3)CN(c3nnco3)C4)CC2)cc1F` [Example 2GG, (S)-7-(4-(4,5-difluoro-2-((tetrahydro-2H-pyran-4-yl)oxy)phenyl)piperidin-1-yl)-2-(1,3,4-oxadiazol-2-yl)-5-oxa-2-azaspiro[3.4]octane], for which the Emax was 0% in test [1], 64% in test [2] and 0% in test [3]. Further, the EC50 was more than 25 µM in test [1], 2.9 µM in test [2] and more than 25 µM in test [3].

On to `Fc1cc(OCC2COC2)c(C2CCN([C@@H]3COC4(C3)CN(c3ncco3)C4)CC2)cc1F` [Example 4O, (S)-7-(4-(4,5-difluoro-2-(oxetan-3-ylmethoxy)phenyl)piperidin-1-yl)-2-(oxazol-2-yl)-5-oxa-2-azaspiro[3.4]octane], for which the Emax in test [1] is 0%; in test [2], 63%; in test [3] it was 0%. Further, the EC50 in test [1] is more than 25 µM; in test [2] it was 0.364 µM; in test [3], more than 25 µM.

As for `c1ccc([C@@H]2CCOC2)c(C2CCN([C@@H]3COC4(C3)CN(c3nnco3)C4)CC2)c1` (single isomer, unassigned) [Example 3B, (S)-2-(1,3,4-oxadiazol-2-yl)-7-(4-(2-((S)-tetrahydrofuran-3-yl)phenyl)piperidin-1-yl)-5-oxa-2-azaspiro[3.4]octane or (S)-2-(1,3,4-oxadiazol-2-yl)-7-(4-(2-((R)-tetrahydrofuran-3-yl)phenyl)piperidin-1-yl)-5-oxa-2-azaspiro[3.4]octane], in test [1], the “M3 FDSS PA %” value is given as 0% and the 50% effective concentration (EC50) was more than 25 µM. For the same compound, in test [2], the “M1 FDSS PA %” value was determined as 82% and the EC50 worked out at 1.12 µM. In test [3], the “M5 FDSS PA %” value was determined as 0% and the EC50 was more than 25 µM.

`COc1ccccc1C1CCN([C@@H]2COC3(C2)CN(c2ncco2)C3)CC1` [Example 4N, (S)-7-(4-(2-methoxyphenyl)piperidin-1-yl)-2-(oxazol-2-yl)-5-oxa-2-azaspiro[3.4]octane]: the Emax in test [1] amounted to 0%; in test [2] it was 64%; in test [3], 0%. Moreover, the EC50 in test [1] was more than 25 µM; in test [2], 0.384 µM; in test [3], more than 25 µM.

Take `c1ccc(C2CCN([C@@H]3COC4(C3)CN(c3nncs3)C4)CC2)c(OC2COC2)c1` [Example 5Q, (S)-7-(4-(2-(oxetan-3-yloxy)phenyl)piperidin-1-yl)-2-(1,3,4-thiadiazol-2-yl)-5-oxa-2-azaspiro[3.4]octane formate salt]: the values for the Emax in test [1], in test [2] and in test [3] were 0%, 86% and 0%, respectively. The EC50 in test [1] is more than 25 µM; in test [2], 0.864 µM; in test [3] it was more than 25 µM.

For the compound `CC(C)(O)[C@H]1C[C@@H](Oc2ccc(F)cc2C2CCN([C@@H]3COC4(C3)CN(c3ncco3)C4)CC2)C1` (single isomer, unassigned) [Example 4U, 2-((1R,3s)-3-(4-fluoro-2-(1-((S)-2-(oxazol-2-yl)-5-oxa-2-azaspiro[3.4]octan-7-yl)piperidin-4-yl)phenoxy)cyclobutyl)propan-2-ol or 2-((1S,3r)-3-(4-fluoro-2-(1-((S)-2-(oxazol-2-yl)-5-oxa-2-azaspiro[3.4]octan-7-yl)piperidin-4-yl)phenoxy)cyclobutyl)propan-2-ol], in test [1], the “M3 FDSS PA %” value was determined as 0% and the concentration for a half-maximal effect (EC50) is more than 25 µM. For the same compound, in test [2], the “M1 FDSS PA %” value stood at 55% and the EC50 came out at 2.24 µM. Also, in test [3], the “M5 FDSS PA %” value worked out at 0% and the concentration giving a half-maximal response (EC50) is more than 25 µM.
